This note sets out measurements from US4229573A, “7α-Methoxycephalosporin derivatives” (Asahi Kasei Kogyo Kabushiki Kaisha, priority 1977, dated 1980).

Common to all, as to test: Minimum inhibitory concentration (MIC) against bacteria
What all share (assay type): cell-based

The subject of experiment [1] is Klebsiella pheumoniae, ATCC 10031. From the text:
(§1) In an antimicrobial spectrum, a minimum inhibitory concentration (MIC) against a bacterium is expressed in terms of μg/ml.

For another experiment, the system named is Proteus rettgeri, ACR.
Text: as §1

Experiment [2] has as its system Citrobacter freundii GN 346. The conditions noted are these: GN346.
Text: as §1

In experiment [3] the test system is Staphylococcus aureus, ATCC 6538 P.
Text: as §1

For experiment [4], the system named is Enterobacter cloacae GN 336. To be noted: GN336.
Text: as §1

Another experiment has as its system Escherichia coli, 0205.
Text: as §1

The test system of experiment [5] is Staphylococcus aureus, ATCC MS 27.
Text: as §1

In experiment [6] the test system is Salmonella enteritidis gaertner.
Text: as §1

The test system of the next experiment is Escherichia coli, NIHJ.
Text: as §1

For another experiment, the system named is Proteus mirabilis.
Text: as §1

In a further experiment the test system is Proteus morganii 0239.
Text: as §1

[7] abbreviates: ATCC10031, Klebsiella pheumoniae, ATCC 10031, read-out: MIC.
Where [8] appears, read: Providencia rettgeri, Proteus rettgeri, ACR, read-out: MIC.
Where [9] appears, read: Citrobacter freundii GN 346, read-out: MIC.
[10] abbreviates: ATCC6538, ATCC 6538 P, read-out: MIC.
[11] abbreviates: Enterobacter cloacae GN 336, read-out: MIC.
Where [12] appears, read: ATCCMS27, ATCC MS 27, read-out: MIC.
The mark [13] stands for this setting: Salmonella enterica, Salmonella enteritidis gaertner, read-out: MIC.
[14] abbreviates: Morganella morganii, Proteus morganii 0239, read-out: MIC.

Each structure is given as a SMILES string. ≈ marks a conversion by molar mass, not a printed value. Like-named read-outs stand apart in the source and are kept apart here. Some results are limits rather than exact numbers.

For `Cn1nnnc1SCC1=C(C(=O)O)N2C(=O)C(NC(=O)C[S+]([O-])c3cccs3)[C@H]2SC1` (stereo partly drawn) [A, 7-(2-Thienylsulfinylacetamido)-3-(1-methyl-1H-tetrazol-5-ylthiomethyl)-3-cephem-4-carboxylic acid], the MIC in experiment [1] (setting [7]) was no more than 0.2 µg/mL; in the experiment on Proteus rettgeri, ACR (setting [8]), 25 µg/mL (≈ 49.9 µM); in [2] (setting [9]), greater than 100 µg/mL; in [3] (setting [10]) it was no more than 0.2 µg/mL; in [4] (setting [11]), 100 µg/mL (≈ 200 µM); with Escherichia coli, 0205 (read-out: MIC) it was 25 µg/mL (≈ 49.9 µM). For the same compound, the MIC in experiment [5] (setting [12]) is 0.4 µg/mL (≈ 0.799 µM); in [6] (setting [13]), no more than 0.2 µg/mL; in the experiment on Escherichia coli, NIHJ (read-out: MIC), 0.8 µg/mL (≈ 1.6 µM); in the experiment with Proteus mirabilis (read-out: MIC) it was 0.8 µg/mL (≈ 1.6 µM); in the experiment on Proteus morganii 0239 (setting [14]), greater than 100 µg/mL.
With `CO[C@@]1(NC(=O)C[S+]([O-])c2cccs2)C(=O)N2C(C(=O)O)=C(CSc3nnnn3C)CS[C@@H]21` (stereo partly drawn) [Example 21, 7β-(2-Thienylsulfinylacetamido)-7α-methoxy-3-(1-methyl-1H-tetrazol-5-ylthiomethyl)-3-cephem-4-carboxylic acid], the MIC is no more than 0.2 µg/mL in experiment [1] (Klebsiella pheumoniae, ATCC 10031); 6.3 µg/mL (≈ 11.9 µM) against Proteus rettgeri, ACR (Proteus rettgeri, ACR); 100 µg/mL (≈ 188 µM) in experiment [2] (Citrobacter freundii); 0.8 µg/mL (≈ 1.51 µM) in experiment [3] (ATCC 6538 P); 25 µg/mL (≈ 47.1 µM) in experiment [4] (Enterobacter cloacae); 3.1 µg/mL (≈ 5.84 µM) in the experiment with Escherichia coli, 0205. For the same compound, the MIC in experiment [5] (ATCC MS 27) is 0.8 µg/mL (≈ 1.51 µM); in experiment [6] (Salmonella enteritidis gaertner), no more than 0.2 µg/mL; in the experiment with Escherichia coli, NIHJ it was 1.6 µg/mL (≈ 3.02 µM); in the experiment with Proteus mirabilis, 0.8 µg/mL (≈ 1.51 µM); with Proteus morganii 0239 (Proteus morganii 0239), 12.5 µg/mL (≈ 23.6 µM).
Turning to `CC(=O)OCC1=C(C(=O)O)N2C(=O)[C@@H](NC(=O)Cc3cccs3)[C@H]2SC1` [Cephalothin, 7-(2-Thienylacetamido)-3-acetoxymethyl-3-cephem-4-carboxylic acid], the MIC was 0.8 µg/mL (≈ 2.02 µM) in experiment [1] (Klebsiella, ATCC10031); greater than 100 µg/mL with Proteus rettgeri, ACR (Providencia rettgeri); greater than 100 µg/mL in experiment [2] (Citrobacter freundii); no more than 0.2 µg/mL in experiment [3] (ATCC6538); greater than 100 µg/mL in [4] (Enterobacter cloacae); greater than 100 µg/mL in the experiment on Escherichia coli, 0205 (read-out: MIC). The MIC in experiment [5] (ATCCMS27) is 0.4 µg/mL (≈ 1.01 µM); in [6] (Salmonella enterica, ENTERITIDIS), 1.6 µg/mL (≈ 4.04 µM); with Escherichia coli, NIHJ (read-out: MIC), 6.3 µg/mL (≈ 15.9 µM); in the experiment with Proteus mirabilis it was 6.3 µg/mL (≈ 15.9 µM); in the experiment with Proteus morganii 0239 (Morganella morganii, 0239), greater than 100 µg/mL.
For the compound `CO[C@@]1(NC(=O)C[S+]([O-])c2cccs2)C(=O)N2C(C(=O)[O-])=C(CSc3nnnn3C)CS[C@@H]21.[Na+]` (stereo partly drawn) [Example 23, sodium 7β-(2-thienylsulfinylacetamido)-7α-methoxy-3-(1-methyl-1H-tetrazol-5-ylthiomethyl)-3-cephem-4-carboxylate], the MIC in the experiment on Escherichia coli, 0205 (text of Example 23 (sodium salt)) turned out to be 3.1 µg/mL.
As for `Cc1nnc(SCC2=C(C(=O)O)N3C(=O)[C@@H](NC(=O)Cn4cnnn4)[C@H]3SC2)s1` [Cefazolin, 7-(1H-Tetrazol-1-ylacetamido)-3-(5-methyl-1,3,4-thiadiazol-2-ylthiomethyl)-3-cephem-4-carboxylic acid], the MIC in [1] (setting [7]) was 1.6 µg/mL (≈ 3.52 µM); in the experiment with Proteus rettgeri, ACR (setting [8]), greater than 100 µg/mL; in experiment [2] (setting [9]), greater than 100 µg/mL; in experiment [3] (setting [10]), no more than 0.2 µg/mL; in [4] (setting [11]), greater than 100 µg/mL; in the experiment with Escherichia coli, 0205 (read-out: MIC) it was 12.5 µg/mL (≈ 27.5 µM). Besides, the MIC is 0.8 µg/mL (≈ 1.76 µM) in experiment [5] (setting [12]); 1.6 µg/mL (≈ 3.52 µM) in [6] (setting [13]); 1.6 µg/mL (≈ 3.52 µM) with Escherichia coli, NIHJ (read-out: MIC); 3.1 µg/mL (≈ 6.82 µM) in the experiment with Proteus mirabilis (read-out: MIC); greater than 100 µg/mL in the experiment with Proteus morganii 0239 (setting [14]).

In general, MIC refers to the smallest concentration in the dilution series that meets the test's criterion for growth inhibition.
